{"source": "patent US10214531B2", "about": "(Institute for Drug Discovery, LLC, priority 2013, dated 2019)", "biological_target": "recombinant human AMCase (Homo sapiens, UniProt Q9BZP6)", "sequence (Q9BZP6 22-476)": "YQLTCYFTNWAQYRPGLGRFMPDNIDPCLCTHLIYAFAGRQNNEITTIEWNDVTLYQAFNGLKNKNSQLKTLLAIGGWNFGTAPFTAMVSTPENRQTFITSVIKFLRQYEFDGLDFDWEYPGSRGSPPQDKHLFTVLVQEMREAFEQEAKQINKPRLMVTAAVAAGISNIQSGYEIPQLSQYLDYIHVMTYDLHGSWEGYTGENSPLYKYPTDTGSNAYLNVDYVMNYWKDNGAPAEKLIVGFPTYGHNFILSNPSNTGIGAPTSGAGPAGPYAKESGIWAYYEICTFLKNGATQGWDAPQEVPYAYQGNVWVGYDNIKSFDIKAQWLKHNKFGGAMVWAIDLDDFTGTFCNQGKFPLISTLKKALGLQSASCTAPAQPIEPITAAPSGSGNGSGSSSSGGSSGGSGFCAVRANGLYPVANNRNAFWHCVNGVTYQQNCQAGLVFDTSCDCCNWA", "test": "Human AMCase Activity Assay", "assay_type": "biochemical", "conditions": "recombinant hAMCase, 4-methylumbelliferyl chitobioside substrate, citrate buffer pH 5.2, 37° C., 60 minutes; read-out: Activity (IC50 value key)", "outline": "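Recombinant human enzyme with fluorogenic 4-methylumbelliferyl β-D-N,N′-diacetylchitobioside substrate in citrate buffer, pH 5.2, 60 min at 37 °C in the dark with shaking. Read-out is 4MU fluorescence at 460 nm.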", "note": "Counter-ions that a name gives are not always drawn."}
{"compound": "CC1(C(=O)NCc2ccc(Cl)cc2)CCN(c2nc(N)n[nH]2)CC1", "note": "[Example 235, 1-(3-amino-1H-1,2,4-triazol-5-yl)-N-(4-chlorobenzyl)-4-methylpiperidine-4-carboxamide]", "values": [{"measurement": "IC50", "result": "> 100", "unit": "µM"}]}
{"compound": "CC1(C(=O)NCc2ccc(Br)cc2)CCN(c2nc(N)n[nH]2)CC1", "note": "[Example 237, 1-(3-amino-1H-1,2,4-triazol-5-yl)-N-(4-bromobenzyl)-4-methylpiperidine-4-carboxamide]", "values": [{"measurement": "IC50", "result": "> 100", "unit": "µM"}]}
{"compound": "CCN(C1CCN(c2nc(N)n[nH]2)CC1)S(=O)(=O)Cc1cccc(Cl)c1", "note": "[Example 238, N-(1-(3-amino-1H-1,2,4-triazol-5-yl)piperidin-4-yl)-1-(3-chlorophenyl)-N-ethylmethanesulfonamide]", "values": [{"measurement": "IC50", "result": "0.1 to 1", "unit": "µM"}]}
{"compound": "CN(C)C(Cc1ccc(Cl)cc1Cl)C(=O)N1CCN(c2nc(N)n[nH]2)CC1", "note": "(stereo not shown) [Example 240, 1-(4-(3-amino-1H-1,2,4-triazol-5-yl)piperazin-1-yl)-3-(2,4-dichlorophenyl)-2-(dimethylamino)propan-1-one]", "values": [{"measurement": "IC50", "result": "> 100", "unit": "µM"}]}
{"compound": "C[C@H](CN1CCN(c2nc(N)n[nH]2)CC1)Oc1ccc(Cl)cc1", "note": "[Example 241, (R)-5-(4-(2-(4-chlorophenoxy)propyl)piperazin-1-yl)-1H-1,2,4-triazol-3-amine dihydrochloride]", "values": [{"measurement": "IC50", "result": "> 100", "unit": "µM"}]}
{"compound": "CN(C)C(CC(=O)N1CCN(c2nc(N)n[nH]2)CC1)c1ccccc1F", "note": "(stereo not shown) [Example 242, 1-(4-(3-amino-1H-1,2,4-triazol-5-yl)piperazin-1-yl)-3-(dimethylamino)-3-(2-fluorophenyl)propan-1-one dihydrochloride]", "values": [{"measurement": "IC50", "result": "> 100", "unit": "µM"}]}
{"compound": "Nc1n[nH]c(N2CCC(CNC(=O)c3cc(Cl)cc(Cl)c3)CC2)n1", "note": "[Example 243, N-((1-(3-amino-1H-1,2,4-triazol-5-yl)piperidin-4-yl)methyl)-3,5-dichlorobenzamide]", "values": [{"measurement": "IC50", "result": "> 100", "unit": "µM"}]}
{"compound": "CC1CN(c2nc(N)n[nH]2)CCC1NS(=O)(=O)Cc1ccc(Br)cc1", "note": "(stereo not shown) [Example 244, N-(1-(3-amino-1H-1,2,4-triazol-5-yl)-3-methylpiperidin-4-yl)-1-(4-bromophenyl)methanesulfonamide]", "values": [{"measurement": "IC50", "result": "1 to 10", "unit": "µM"}]}
{"compound": "CN(CCc1ccc(Cl)cc1)C1(CCCO)CCN(c2nc(N)n[nH]2)CC1", "note": "[Example 245, 3-(1-(3-amino-1H-1,2,4-triazol-5-yl)-4-((4-chlorophenethyl)(methyl)amino)piperidin-4-yl)propan-1-ol]", "values": [{"measurement": "IC50", "result": "1 to 10", "unit": "µM"}]}
{"compound": "CN(CCc1ccc(Br)cc1)C1CCN(c2nc(N)n[nH]2)CC1CCCO", "note": "(stereo not shown) [Example 246, 3-(1-(3-amino-1H-1,2,4-triazol-5-yl)-4-((4-bromophenethyl)(methyl)amino)piperidin-3-yl)propan-1-ol]", "values": [{"measurement": "IC50", "result": "< 0.1", "unit": "µM"}]}
{"compound": "CCCC1(NCCc2ccc(Br)cc2)CCN(c2nc(N)n[nH]2)CC1", "note": "[Example 247, 1-(3-amino-1H-1,2,4-triazol-5-yl)-N-(4-bromophenethyl)1-4-propyl piperidin-4-amine, dihydrochloride]", "values": [{"measurement": "IC50", "result": "1 to 10", "unit": "µM"}]}
{"compound": "CN(C1CCN(c2nc(N)n[nH]2)CC1)S(=O)(=O)Cc1cccc(Cl)c1", "note": "[Example 248, N-(1-(3-amino-1H-1,2,4-triazol-5-yl)piperidin-4-yl)-2-(3-chlorophenyl)-N-methylmethanesulfonamide hydrochloride]", "values": [{"measurement": "IC50", "result": "> 100", "unit": "µM"}]}
{"compound": "CN(CCc1ccc(Cl)cc1)C1CCN(c2nc(N)n[nH]2)CC1F", "note": "(stereo not shown) [Example 249, 1-(3-amino-1H-1,2,4-triazol-5-yl)-N-(4-chlorophenethyl)-3-fluoro-N-methylpiperidin-4-amine]", "values": [{"measurement": "IC50", "result": "1 to 10", "unit": "µM"}]}
{"compound": "CN(C1CCN(c2nc(N)n[nH]2)CC1)C1CCc2ccccc2C1", "note": "(stereo not shown) [Example 250, 1-(3-amino-1H-1,2,4-triazol-5-yl)-N-methyl-N-(1,2,3,4-tetrahydronaphthalen-2-yl)piperidin-4-amine dihydrochloride]", "values": [{"measurement": "IC50", "result": "> 100", "unit": "µM"}]}
{"compound": "Nc1n[nH]c(N2CCC(NCCc3ccc(Cl)cc3)C(CCCO)C2)n1", "note": "(stereo not shown) [Example 251, 3-(1-(3-amino-1H-1,2,4-triazol-5-yl)-4-((4-chlorophenethyl)amino)piperidin-3-yl)propan-1-ol dihydrochloride]", "values": [{"measurement": "IC50", "result": "< 0.1", "unit": "µM"}]}
{"compound": "Nc1n[nH]c(N2CCC(CNCc3ccc(Cl)c(Cl)c3)CC2)n1", "note": "[Example 252, 5-(4-(((3,4-dichlorobenzyl)amino)methyl)piperidin-1-yl)-1H-1,2,4-triazol-3-amine dihydrochloride]", "values": [{"measurement": "IC50", "result": "> 100", "unit": "µM"}]}
{"compound": "Nc1n[nH]c(N2CCC3C(CCCN3CCc3ccc(Br)cc3)C2)n1", "note": "(stereo not shown) [Example 253, 5-(1-(4-bromophenethyl)octahydro-1,6-naphthyridin-6(2H)-yl)-1H-1,2,4-triazol-3-amine dihydrochloride]", "values": [{"measurement": "IC50", "result": "< 0.1", "unit": "µM"}]}
{"compound": "Nc1n[nH]c(N2CCC(CNCc3ccc(Br)cc3)CC2)n1", "note": "[Example 254, 5-(4-(((4-bromobenzyl)amino)methyl)piperidin-1-yl)-1H-1,2,4-triazol-3-amine]", "values": [{"measurement": "IC50", "result": "> 100", "unit": "µM"}]}
{"compound": "Nc1n[nH]c(N2CCC(C(=O)NCc3cc(C(F)(F)F)cc(C(F)(F)F)c3)CC2)n1", "note": "[Example 255, 1-(3-amino-1H-1,2,4-triazol-5-yl)-N-(3,5-bis(trifluoromethyl)benzyl)piperidine-4-carboxamide]", "values": [{"measurement": "IC50", "result": "> 100", "unit": "µM"}]}
{"compound": "Nc1n[nH]c(N2CCC(CCCCO)(NS(=O)(=O)Cc3ccc(Br)cc3)CC2)n1", "note": "[Example 256, N-(1-(3-amino-1H-1,2,4-triazol-5-yl)-4-(4-hydroxybutyl)piperidin-4-yl)-1-(4-bromophenyl)methanesulfonamide]", "values": [{"measurement": "IC50", "result": "1 to 10", "unit": "µM"}]}
{"compound": "Nc1n[nH]c(N2CCN(C(CCc3ccc(Br)cc3)Cc3ccccc3)CC2)n1", "note": "(stereo not shown) [Example 257, 5-(4-(4-(4-bromophenyl)-1-phenylbutan-2-yl)piperazin-1-yl)-1H-1,2,4-triazol-3-amine trifluoroacetate]", "values": [{"measurement": "IC50", "result": "0.1 to 1", "unit": "µM"}]}
{"compound": "CC(C)(Oc1ccc(Cl)cc1)C(=O)N1CCN(c2nc(N)n[nH]2)CC1", "note": "[Example 258, 1-(4-(3-amino-1H-1,2,4-triazol-5-yl)piperazin-1-yl)-2-(4-chlorophenoxy)-2-methylpropan-1-one]", "values": [{"measurement": "IC50", "result": "> 100", "unit": "µM"}]}
